In patent EP2459551B1, “DIHYDROBENZOINDAZOLES” (Merck Sharp & Dohme B.V., priority 2009, dated 2011):

What follows are compounds tested against T1, human FSH receptor (Homo sapiens, UniProt P23945).
T1 sequence (P23945 18-695): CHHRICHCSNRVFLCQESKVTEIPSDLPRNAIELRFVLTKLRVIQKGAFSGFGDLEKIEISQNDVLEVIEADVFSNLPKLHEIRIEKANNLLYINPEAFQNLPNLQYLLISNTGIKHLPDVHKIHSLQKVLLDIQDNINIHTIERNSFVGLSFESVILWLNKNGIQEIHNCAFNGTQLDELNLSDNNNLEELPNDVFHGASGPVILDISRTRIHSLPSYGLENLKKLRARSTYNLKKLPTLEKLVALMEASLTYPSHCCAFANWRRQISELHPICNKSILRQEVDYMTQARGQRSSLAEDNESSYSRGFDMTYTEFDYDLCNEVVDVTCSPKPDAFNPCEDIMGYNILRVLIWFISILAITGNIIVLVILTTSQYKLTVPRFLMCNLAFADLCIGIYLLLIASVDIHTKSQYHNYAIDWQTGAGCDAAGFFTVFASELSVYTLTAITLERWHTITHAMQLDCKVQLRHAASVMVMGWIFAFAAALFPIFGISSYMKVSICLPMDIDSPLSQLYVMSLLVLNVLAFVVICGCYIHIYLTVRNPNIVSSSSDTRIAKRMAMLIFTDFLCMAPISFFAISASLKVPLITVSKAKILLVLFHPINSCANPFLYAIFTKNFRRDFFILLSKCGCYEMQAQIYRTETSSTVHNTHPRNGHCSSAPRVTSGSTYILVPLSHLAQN
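Further: CHO cells stably expressing human FSH receptor with CRE-driven firefly luciferase, luminescence read as counts per second after 4 h compound exposure in 1% DMSO.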
Protocol: Agonistic activity of compounds at the human FSH receptor expressed in CHO cells
Agonistic activity of the compounds at the human FSH receptor was determined in Chinese Hamster Ovary (CHO) cells stably transfected with the human FSH receptor and cotransfected with a cAMP responsive element (CRE)/promotor directing the expression of a firefly luciferase reporter gene. […] Cells (7,500 cells/well of a 384 well plate) were incubated in Dulbecco' minimal essential F12 modified medium (Invitrogen), supplemented with 1 µg/ml bovine insulin, 5 µg/ml human apotransferrin, 80 U/ml penicillin G and 80 µg/ml streptomycin with the test compounds (concentration between 0.0316 nM and 10.0 µM) in duplicate in a humidified atmosphere (95%) at 5-7% CO2 and 37°C. The final concentration of DMSO was 1%. After 4 hours of incubation, plates were allowed to adjust to room temperature for 1 hour. Then, Luclite (PerkinElmer) solution was added to the wells and cells were allowed to lyse for at least 1 hour at room temperature. Subsequently, luciferase activity was measured in a luminescence counter. The signal is expressed as counts per second (cps). The EC50 (concentration of the test compound that elicits half-maximal (50 %) luciferase stimulation compared to the compound's maximally attainable effect) and efficacy values (maximal effect of the test compound as percentage of the maximal effect of recombinant human FSH) of the compounds were determined using the software program MathIQ (version 2.0, ID Business Solutions Limited).

Compound | EC50 [nM]
COc1cc2c(cc1NC(=O)CN1CCOCC1)-c1c(c(C(=O)N(C)C(C)(C)C)nn1-c1cccc(C)c1)CC2 [Example 12jb, N-tert-butyl-7-methoxy-N-methyl-8-(2-morpholinoacetamido)-1-m-tolyl-4,5-dihydro-1H-benzo[g]indazole-3-carboxamide] | 1000 to 10000
COc1cc2c(cc1OC(C)C)-c1c(c(C(=O)N(C)C(C)(C)C)nn1-c1ccc(Cl)cc1)CC2 [Example 13ce, N-tert-butyl-1-(4-chlorophenyl)-8-isopropoxy-7-methoxy-N-methyl-4,5-dihydro-1H-benzo[g]indazole-3-carboxamide] | 100 to 1000
C=Cc1cccc(-n2nc(C(=O)N(C)C(C)(C)C)c3c2-c2cc(OC(C)C)c(OC)cc2CC3)c1 [Example 7cc, N-tert-butyl-8-isopropoxy-7-methoxy-N-methyl-1-(3-vinylphenyl)-4,5-dihydro-1H-benzo[g]indazole-3-carboxamide] | 100 to 1000
COc1cc2c(cc1OC(C)C)-c1c(c(C(=O)N(C)C(C)(C)C)nn1-c1ccccc1-c1ccoc1)CC2 [Example 9cd, N-tert-butyl-1-(2-(furan-3-yl)phenyl)-8-isopropoxy-7-methoxy-N-methyl-4,5-dihydro-1H-benzo[g]indazole-3-carboxamide] | 1000 to 10000
COc1cc2c(cc1NC(=O)CN1CCC1)-c1c(c(C(=O)N(C)C(C)(C)C)nn1-c1cccc(C)c1)CC2 [Example 12jd, 8-(2-(azetidin-1-yl)acetamido)-N-tert-butyl-7-methoxy-N-methyl-1-m-tolyl-4,5-dihydro-1H-benzo[g]indazole-3-carboxamide] | 1000 to 10000
COc1cc2c(cc1NS(C)(=O)=O)-c1c(c(C(=O)N(C)C(C)(C)C)nn1-c1cccc(C)c1)CC2 [Example 12h] | 1000 to 10000
COc1cc2c(cc1OC(C)C)-c1c(c(C(=O)N(C)C(C)(C)C)nn1-c1ccccc1F)CC2 [Example 10cb, N-tert-butyl-1-(2-fluorophenyl)-8-isopropoxy-7-methoxy-N-methyl-4,5-dihydro-1H-benzo[g]indazole-3-carboxamide] | 100 to 1000
COc1cccc(-n2nc(C(=O)N(C)C(C)(C)C)c3c2-c2cc(OC(C)C)c(OC)cc2CC3)c1 [Example 8cc, N-tert-butyl-8-isopropoxy-7-methoxy-1-(3-methoxyphenyl)-N-methyl-4,5-dihydro-1H-benzo[g]indazole-3-carboxamide] | 100 to 1000
COc1cc2c(cc1OC(C)C)-c1c(c(C(=O)N(C)C(C)(C)C)nn1-c1cccc(F)c1)CC2 [Example 8cb, N-tert-butyl-1-(3-fluorophenyl)-8-isopropoxy-7-methoxy-N-methyl-4,5-dihydro-1H-benzo[g]indazole-3-carboxamide] | 100 to 1000
COc1ccc(-n2nc(C(=O)N(C)C(C)(C)C)c3c2-c2cc(OC(C)C)c(OC)cc2CC3)cc1 [Example 13cc, N-tert-butyl-8-isopropoxy-7-methoxy-1-(4-methoxyphenyl)-N-methyl-4,5-dihydro-1H-benzo[g]indazole-3-carboxamide] | 1000 to 10000
COc1cc2c(cc1OC)-c1c(c(C(=O)N3CCCN(C(=O)C4CCC4)CC3)nn1-c1ccc(F)cc1)CC2 [Example 1g] | 100 to 1000
CCc1cccc(-n2nc(C(=O)N(C)C(C)(C)C)c3c2-c2cc(OC(C)C)c(OC)cc2CC3)c1 [Example 7cd, N-tert-butyl-1-(3-ethylphenyl)-8-isopropoxy-7-methoxy-N-methyl-4,5-dihydro-1H-benzo[g]indazole-3-carboxamide] | 100 to 1000
C=C(C)c1cccc(-n2nc(C(=O)N(C)C(C)(C)C)c3c2-c2cc(OC(C)C)c(OC)cc2CC3)c1 [Example 7cb, N-tert-butyl-8-isopropoxy-7-methoxy-N-methyl-1-(3-(prop-1-en-2-yl)phenyl)-4,5-dihydro-1H-benzo[g]indazole-3-carboxamide] | 1000 to 10000
COc1cc2c(cc1OC(C)C)-c1c(c(C(=O)N(C)C(C)(C)C)nn1-c1ccc(Br)cc1)CC2 [Example 13cf, N-tert-butyl-1-(4-bromophenyl)-8-isopropoxy-7-methoxy-N-methyl-4,5-dihydro-1H-benzo[g]indazole-3-carboxamide] | 1000 to 10000
COc1cc2c(cc1OC(C)C)-c1c(c(C(=O)N(C)C(C)(C)C)nn1-c1ccc(C)cc1)CC2 [Example 13ca, N-tert-butyl-8-isopropoxy-7-methoxy-N-methyl-1-p-tolyl-4,5-dihydro-1H-benzo[g]indazole-3-carboxamide] | 1000 to 10000
CCc1ccc(-n2nc(C(=O)N(C)C(C)(C)C)c3c2-c2cc(OC(C)C)c(OC)cc2CC3)cc1 [Example 13cb, N-tert-butyl-1-(4-ethylphenyl)-8-isopropoxy-7-methoxy-N-methyl-4,5-dihydro-1H-benzo[g]lindazole-3-carboxamide] | 1000 to 10000
COc1cc2c(cc1-c1ncco1)-c1c(c(C(=O)N(C)C(C)(C)C)nn1-c1ccccc1Cl)CC2 [Example 11ga, N-tert-butyl-1-(2-chlorophenyl)-7-methoxy-N-methyl-8-(oxazol-2-yl)-4,5-dihydro-1H-benzo[g]lindazole-3-carboxamide] | 1000 to 10000
COc1cc2c(cc1OC(C)C)-c1c(c(C(=O)N(C)C(C)(C)C)nn1-c1cccnc1)CC2 [Example 6b, N-tert-butyl-8-isopropoxy-7-methoxy-N-methyl-1-(pyridin-3-yl)-4,5-dihydro-1H-benzo[g]indazole-3-carboxamide] | 100 to 1000
COc1cc2c(cc1OC(C)C)-c1c(c(C(=O)N(C)C(C)(C)C)nn1-c1ccccc1OC)CC2 [Example 10cc, N-tert-butyl-8-isopropoxy-7-methoxy-1-(2-methoxyphenyl)-N-methyl-4,5-dihydro-1H-benzo[g]indazole-3-carboxamide] | 1000 to 10000
COc1cc2c(cc1OC(C)C)-c1c(c(C(=O)N(C)C(C)(C)C)nn1-c1cccc(C)c1)CC2 [Example 8cd, N-tert-butyl-8-isopropoxy-7-methoxy-N-methyl-1-m-tolyl-4,5-dihydro-1H-benzo[g]indazole-3-carboxamide] | 100 to 1000
COc1cc2c(cc1OC(C)C)-c1c(c(C(=O)N(C)C(C)(C)C)nn1-c1ccccc1C)CC2 [Example 10ca, N-tert-butyl-8-isopropoxy-7-methoxy-N-methyl-1-o-tolyl-4,5-dihydro-1H-benzo[g]lindazole-3-carboxamide] | 1000 to 10000
